From publication PMC4022671, “Characterization of Mannitol-2-Dehydrogenase in Saccharina japonica: Evidence for a New Polyol-Specific Long-Chain Dehydrogenases/Reductase” (PLoS ONE, 2014)

Target: T1, SjM2DH (mannitol-2-dehydrogenase) (Saccharina japonica, UniProt R9UHL6)
T1 construct: assayed in cell-free extract
Assay: NADH depletion at OD340, crude E. coli extract with recombinant enzyme
Type: biochemical
Settings: NADH 1 mM, fructose 100 mM, 100 mM Tris-HCl pH 7.5, 35 °C

T1 sequence (R9UHL6 entry or part of it): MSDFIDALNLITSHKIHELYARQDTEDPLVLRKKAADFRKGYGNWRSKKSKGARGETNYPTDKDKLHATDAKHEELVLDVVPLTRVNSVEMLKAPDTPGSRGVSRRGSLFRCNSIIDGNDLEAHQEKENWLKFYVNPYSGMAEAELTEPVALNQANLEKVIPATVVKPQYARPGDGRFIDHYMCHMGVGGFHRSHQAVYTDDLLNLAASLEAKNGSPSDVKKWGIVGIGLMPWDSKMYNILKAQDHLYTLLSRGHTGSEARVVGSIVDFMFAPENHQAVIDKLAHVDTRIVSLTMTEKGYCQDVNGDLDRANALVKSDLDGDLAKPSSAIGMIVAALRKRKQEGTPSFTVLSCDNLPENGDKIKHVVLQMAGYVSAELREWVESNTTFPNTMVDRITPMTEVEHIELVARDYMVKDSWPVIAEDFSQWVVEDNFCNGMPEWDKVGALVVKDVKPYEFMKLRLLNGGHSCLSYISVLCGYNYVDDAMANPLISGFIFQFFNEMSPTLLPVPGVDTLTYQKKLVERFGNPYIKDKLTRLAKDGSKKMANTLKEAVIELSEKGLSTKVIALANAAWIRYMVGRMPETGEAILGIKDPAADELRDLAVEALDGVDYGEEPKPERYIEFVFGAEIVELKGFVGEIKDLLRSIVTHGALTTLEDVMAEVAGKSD

Structure (SMILES) | NADH depletion at OD340, crude E. coli extract with recombinant enzyme
OCC1(O)OC[C@@H](O)[C@@H](O)[C@@H]1O (stereo partly drawn) [D-fructose] | When D-fructose was applied as the substrate, a depletion of NADH was detected
NC(=O)C1=CN([C@@H]2O[C@H](COP(=O)(O)OP(=O)(O)OC[C@H]3O[C@@H](n4cnc5c(N)ncnc54)[C@H](O)[C@@H]3O)[C@@H](O)[C@H]2O)C=CC1 [NADH] | reduction of fructose by recombinant SjM2DH exclusively uses NADH as cofactor
